In the supplement of paper PMC10307832:

What was measured:
Test in all cases: relative viability (nuclei count vs DMSO), 5 days (fraction); higher = more cells survive
201T = tested on: 201T
How it was run: (§1)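 Each reported value is a median over duplicate plates. It expresses relative viability: treated-well nuclei count divided by vehicle-well nuclei count. Lung cancer cell lines in 1536-well plates were dosed by pin tool a day after seeding, alone with one drug or with a fixed anchor-drug dose plus five library-drug doses (not always all listed) in √10 steps, and nuclei were counted after 5 days.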

COR-L23 = tested on: COR-L23
How it was run: as §1

EPLC-272H = tested on: EPLC-272H
How it was run: as §1

H3255 = tested on: H3255
How it was run: as §1

HCC-15 = tested on: HCC-15
How it was run: as §1

LOU-NH91 = tested on: LOU-NH91
How it was run: as §1

NCI-H1563 = tested on: NCI-H1563
How it was run: as §1

NCI-H1650 = tested on: NCI-H1650
How it was run: as §1

NCI-H1734 = tested on: NCI-H1734
How it was run: as §1

NCI-H1793 = tested on: NCI-H1793
How it was run: as §1

NCI-H2023 = tested on: NCI-H2023
How it was run: as §1

NCI-H2170 = tested on: NCI-H2170
How it was run: as §1

NCI-H2347 = tested on: NCI-H2347
How it was run: as §1

NCI-H2405 = tested on: NCI-H2405
How it was run: as §1

NCI-H3122 = tested on: NCI-H3122
How it was run: as §1

NCI-H322M = tested on: NCI-H322M
How it was run: as §1

NCI-H441 = tested on: NCI-H441
How it was run: as §1

NCI-H520 = tested on: NCI-H520
How it was run: as §1

NCI-H647 = tested on: NCI-H647
How it was run: as §1

PC-14 = tested on: PC-14
How it was run: as §1

SW 900 = tested on: SW 900
How it was run: as §1

UMC-11 = tested on: UMC-11
How it was run: as §1

O=c1cc(-c2cccc3c2Sc2ccccc2S3)oc(N2CCOCC2)c1 + CCNC(=O)c1noc(-c2cc(C(C)C)c(O)cc2O)c1-c1ccc(CN2CCOCC2)cc1 [Luminespib] (partner 0.01 µM)
relative viability (201T; first compound 0.08 µM): 1.02 | relative viability (201T; first compound 0.253 µM): 1.05 | relative viability (201T; first compound 0.8 µM): 1.16 | relative viability (201T; first compound 2.53 µM): 0.99 | relative viability (201T; first compound 8 µM): 0.969 | relative viability (COR-L23; first compound 0.08 µM): 0.863 | relative viability (COR-L23; first compound 0.253 µM): 0.854 | relative viability (COR-L23; first compound 0.8 µM): 0.837 | relative viability (COR-L23; first compound 2.53 µM): 0.78 | relative viability (COR-L23; first compound 8 µM): 0.703 | relative viability (EPLC-272H; first compound 0.08 µM): 0.182 | relative viability (EPLC-272H; first compound 0.253 µM): 0.405 | relative viability (EPLC-272H; first compound 0.8 µM): 0.431 | relative viability (EPLC-272H; first compound 2.53 µM): 0.146 | relative viability (EPLC-272H; first compound 8 µM): 0.292 | relative viability (H3255; first compound 0.08 µM): 0.758 | relative viability (H3255; first compound 0.253 µM): 0.943 | relative viability (H3255; first compound 0.8 µM): 0.84 | relative viability (H3255; first compound 2.53 µM): 0.884 | relative viability (H3255; first compound 8 µM): 0.955 | relative viability (HCC-15; first compound 0.08 µM): 0.206 | relative viability (HCC-15; first compound 0.253 µM): 0.207 | relative viability (HCC-15; first compound 0.8 µM): 0.373 | relative viability (HCC-15; first compound 2.53 µM): 0.242 | relative viability (HCC-15; first compound 8 µM): 0.276 | relative viability (LOU-NH91; first compound 0.08 µM): 0.327 | relative viability (LOU-NH91; first compound 0.253 µM): 0.43 | relative viability (LOU-NH91; first compound 0.8 µM): 0.339 | relative viability (LOU-NH91; first compound 2.53 µM): 0.354 | relative viability (LOU-NH91; first compound 8 µM): 0.357 | relative viability (NCI-H1563; first compound 0.08 µM): 0.708 | relative viability (NCI-H1563; first compound 0.253 µM): 0.567 | relative viability (NCI-H1563; first compound 0.8 µM): 0.491 | relative viability (NCI-H1563; first compound 2.53 µM): 0.491 | relative viability (NCI-H1563; first compound 8 µM): 0.497 | relative viability (NCI-H1650; first compound 0.08 µM): 0.189 | relative viability (NCI-H1650; first compound 0.253 µM): 0.199 | relative viability (NCI-H1650; first compound 0.8 µM): 0.199 | relative viability (NCI-H1650; first compound 2.53 µM): 0.186 | relative viability (NCI-H1650; first compound 8 µM): 0.209 | relative viability (NCI-H1734; first compound 0.08 µM): 0.195 | relative viability (NCI-H1734; first compound 0.253 µM): 0.175 | relative viability (NCI-H1734; first compound 0.8 µM): 0.228 | relative viability (NCI-H1734; first compound 8 µM): 0.2 | relative viability (NCI-H1793; first compound 0.08 µM): 0.168 | relative viability (NCI-H1793; first compound 0.253 µM): 0.299 | relative viability (NCI-H1793; first compound 0.8 µM): 0.231 | relative viability (NCI-H1793; first compound 2.53 µM): 0.17 | relative viability (NCI-H1793; first compound 8 µM): 0.153 | relative viability (NCI-H2023; first compound 0.08 µM): 0.58 | relative viability (NCI-H2023; first compound 0.253 µM): 0.949 | relative viability (NCI-H2023; first compound 0.8 µM): 0.601 | relative viability (NCI-H2023; first compound 2.53 µM): 0.856 | relative viability (NCI-H2023; first compound 8 µM): 0.499 | relative viability (NCI-H2170; first compound 0.08 µM): 0.839 | relative viability (NCI-H2170; first compound 0.253 µM): 0.931 | relative viability (NCI-H2170; first compound 0.8 µM): 0.903 | relative viability (NCI-H2170; first compound 2.53 µM): 0.63 | relative viability (NCI-H2170; first compound 8 µM): 0.533 | relative viability (NCI-H2347; first compound 0.08 µM): 0.529 | relative viability (NCI-H2347; first compound 0.253 µM): 0.358 | relative viability (NCI-H2347; first compound 0.8 µM): 0.284 | relative viability (NCI-H2347; first compound 2.53 µM): 0.461 | relative viability (NCI-H2347; first compound 8 µM): 0.391 | relative viability (NCI-H2405; first compound 0.08 µM): 0.522 | relative viability (NCI-H2405; first compound 0.253 µM): 0.565 | relative viability (NCI-H2405; first compound 0.8 µM): 0.464 | relative viability (NCI-H2405; first compound 2.53 µM): 0.568 | relative viability (NCI-H2405; first compound 8 µM): 0.465 | relative viability (NCI-H3122; first compound 0.08 µM): 0.109 | relative viability (NCI-H3122; first compound 0.253 µM): 0.102 | relative viability (NCI-H3122; first compound 0.8 µM): 0.111 | relative viability (NCI-H3122; first compound 2.53 µM): 0.0685 | relative viability (NCI-H3122; first compound 8 µM): 0.106 | relative viability (NCI-H322M; first compound 0.08 µM): 0.711 | relative viability (NCI-H322M; first compound 0.253 µM): 0.824 | relative viability (NCI-H322M; first compound 0.8 µM): 0.823 | relative viability (NCI-H322M; first compound 2.53 µM): 0.769 | relative viability (NCI-H322M; first compound 8 µM): 0.849 | relative viability (NCI-H441; first compound 0.08 µM): 0.331 | relative viability (NCI-H441; first compound 0.253 µM): 0.314 | relative viability (NCI-H441; first compound 0.8 µM): 0.35 | relative viability (NCI-H441; first compound 2.53 µM): 0.407 | relative viability (NCI-H441; first compound 8 µM): 0.281 | relative viability (NCI-H520; first compound 0.08 µM): 0.223 | relative viability (NCI-H520; first compound 0.253 µM): 0.231 | relative viability (NCI-H520; first compound 0.8 µM): 0.215 | relative viability (NCI-H520; first compound 2.53 µM): 0.205 | relative viability (NCI-H520; first compound 8 µM): 0.231 | relative viability (NCI-H647; first compound 0.08 µM): 0.123 | relative viability (NCI-H647; first compound 0.253 µM): 0.138 | relative viability (NCI-H647; first compound 0.8 µM): 0.259 | relative viability (NCI-H647; first compound 2.53 µM): 0.183 | relative viability (NCI-H647; first compound 8 µM): 0.161 | relative viability (PC-14; first compound 0.08 µM): 0.155 | relative viability (PC-14; first compound 0.253 µM): 0.15 | relative viability (PC-14; first compound 0.8 µM): 0.165 | relative viability (PC-14; first compound 2.53 µM): 0.168 | relative viability (PC-14; first compound 8 µM): 0.155 | relative viability (SW 900; first compound 0.08 µM): 0.198 | relative viability (SW 900; first compound 0.253 µM): 0.187 | relative viability (SW 900; first compound 0.8 µM): 0.166 | relative viability (SW 900; first compound 2.53 µM): 0.149 | relative viability (SW 900; first compound 8 µM): 0.15 | relative viability (UMC-11; first compound 0.08 µM): 1.07 | relative viability (UMC-11; first compound 0.253 µM): 1.22 | relative viability (UMC-11; first compound 0.8 µM): 1.19 | relative viability (UMC-11; first compound 2.53 µM): 1.25 | relative viability (UMC-11; first compound 8 µM): 1.34
